Source: US9932368B2, “Peptides for the stimulation of collagen formation” (INFINITEC ACTIVOS S.L, priority 2013, dated 2018)
The star is where a group is joined. Palmitoyl = CCCCCCCCCCCCCCCC(=O)*

Tested on: type I collagen
Assay: Determination of collagen biosynthesis (type I collagen ELISA), single peptides and mixture, Example 10
Type: cell-based, human
Conditions: 20, 40 and 80 μg/ml, 72 hours; ELISA O.D. 450 nm; vs untreated cells
Description: Human Dermal Fibroblasts (ATCC PCS-201-012) were seeded in 96-well plates (3000 cells per well), and left to grow in DMEM containing 5% fetal bovine serum (FBS) for 48 hours. The medium was then replaced with fresh medium containing 0.1% FBS and the corresponding treatment for determining collagen production. After the incubation with each of the peptides (1, 2, and 3) and the mixture of peptides 1-3 synthesized in Example 1, at different concentrations (20, 40 and 80 μg/ml) of each peptide dissolved in DMEM medium in an equivalent proportion of each of them in the mixture (1:1:1 w/w/w), for a period of 72 hours, the same amounts of supernatant were added to a plate coated with human type I collagen antibody (commercial rabbit polyclonal antibodies against human collagen I, code A03C0377, provided by Bluegene Biotech Co. Ltd). The plate was incubated at room temperature for 2 hours to allow the antibody and the produced collagen to react with one another. The plate was then washed three times with PBS containing 0.5% Tween 20 for removing the remaining unbound sample. Next, a human antibody which recognizes the biotin-labeled type I collagen was added for 1 hour. After washing the plate with phosphate buffered saline (PBS) containing 0.5% Tween 20 for removing non-specific interactions, streptavidin-horseradish peroxidase (HRP) (St Louis, Sigma) was added. The amount of collagen in each well was determined using tetramethylbenzidine (TMB) (St Louis, Sigma) as the substrate for the HRP. The reaction between the HRP and TMB was stopped by adding 1 N HCl, and the O.D. (optical density) was measured at 450 nm. The untreated cells represented the negative control of the experiment.

Substance | induction of type I collagen
Palm-RGDGANPNAAG-NH2 (Palmitoyl-RGDGANPNAAG-NH2; SMILES CCCCCCCCCCCCCCCC(=O)N[C@@H](CCCNC(=N)N)C(=O)NCC(=O)N[C@@H](CC(=O)O)C(=O)NCC(=O)N[C@@H](C)C(=O)N[C@@H](CC(N)=O)C(=O)N1CCC[C@H]1C(=O)N[C@@H](CC(N)=O)C(=O)N[C@@H](C)C(=O)N[C@@H](C)C(=O)NCC(N)=O) [Peptide 1] | capable of inducing type I collagen production
Palm-RGDGPQGPQ-NH2 (Palmitoyl-RGDGPQGPQ-NH2; SMILES CCCCCCCCCCCCCCCC(=O)N[C@@H](CCCNC(=N)N)C(=O)NCC(=O)N[C@@H](CC(=O)O)C(=O)NCC(=O)N1CCC[C@H]1C(=O)N[C@@H](CCC(N)=O)C(=O)NCC(=O)N1CCC[C@H]1C(=O)N[C@@H](CCC(N)=O)C(N)=O) [Peptide 2] | capable of inducing type I collagen production
Palm-WRFQWQFEQ-NH2 (Palmitoyl-WRFQWQFEQ-NH2; SMILES CCCCCCCCCCCCCCCC(=O)N[C@@H](Cc1c[nH]c2ccccc12)C(=O)N[C@@H](CCCNC(=N)N)C(=O)N[C@@H](Cc1ccccc1)C(=O)N[C@@H](CCC(N)=O)C(=O)N[C@@H](Cc1c[nH]c2ccccc12)C(=O)N[C@@H](CCC(N)=O)C(=O)N[C@@H](Cc1ccccc1)C(=O)N[C@@H](CCC(=O)O)C(=O)N[C@@H](CCC(N)=O)C(N)=O) [Peptide 3] | capable of inducing type I collagen production
